# Columns and labels:
# [1] = system: persian speedwell; test: Test Example 5: herbicidal effect by foliage application, plastic box (Table 20, symbol R); format: in vivo, Persian speedwell (Veronica persica); conditions: foliage application, 320 g/ha, evaluated three weeks after application
# Method in brief: (§1)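 Foliar spray test: emulsion formulation diluted in water to a set application rate, sprayed onto 14-day-old plants raised in diluvial soil at 25° C to 30° C under glass. Both herbicidal effect and crop effect rated visually three weeks later.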
# [2] = system: chickweed; test: Test Example 5: herbicidal effect by foliage application, plastic box (Table 20, symbol P); format: in vivo, common chickweed (Stellaria media); conditions: foliage application, evaluated three weeks after application
# Method in brief: as §1
# [3] = system: barnyard grass; test: Test Example 5: herbicidal effect by foliage application, plastic box (Table 20, symbol H); format: in vivo, barnyard grass (Echinochloa crus-galli); conditions: foliage application, evaluated three weeks after application
# Method in brief: as §1
# [4] = system: lambsquarters; test: Test Example 5: herbicidal effect by foliage application, plastic box (Table 20, symbol O); format: in vivo, lambsquarters (Chenopodium album); conditions: foliage application, evaluated three weeks after application
# Method in brief: as §1
# [5] = system: rice flat sedge; test: Test Example 3: herbicidal effect by foliage application, Wagner pot (Table 18, symbol E); format: in vivo, rice flat sedge (Cyperus iria)
# Method in brief: (§2)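 Plants were sown in alluvial soil held under 0.1–0.5 cm standing water and grown 14 days in a greenhouse at 25–30 °C. An emulsifiable formulation, water-diluted to the set dose, was then sprayed onto the foliage, and effects were scored three weeks later using previously defined criteria.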
# [6] = system: Italian ryegrass; test: Test Example 5: herbicidal effect by foliage application, plastic box (Table 20, symbol K); format: in vivo, Italian ryegrass (Lolium multiflorum); conditions: foliage application, evaluated three weeks after application
# Method in brief: as §1
# [7] = system: windgrass; test: Test Example 5: herbicidal effect by foliage application, plastic box (Table 20, symbol L); format: in vivo, windgrass (Apera spica-venti); conditions: foliage application, evaluated three weeks after application
# Method in brief: as §1
# [8] = system: green foxtail; test: Test Example 5: herbicidal effect by foliage application, plastic box (Table 20, symbol G); format: in vivo, green foxtail (Setaria viridis); conditions: foliage application, evaluated three weeks after application
# Method in brief: as §1
# [9] = system: southern crabgrass; test: Test Example 5: herbicidal effect by foliage application, plastic box (Table 20, symbol F); format: in vivo, southern crabgrass (Digitaria ciliaris); conditions: foliage application, evaluated three weeks after application
# Method in brief: as §1
# [10] = system: velvetleaf; test: Test Example 5: herbicidal effect by foliage application, plastic box (Table 20, symbol M); format: in vivo, velvetleaf (Abutilon theophrasti); conditions: foliage application, evaluated three weeks after application
# Method in brief: as §1
# [11] = system: barnyard grass; test: Test Example 3: herbicidal effect by foliage application, Wagner pot (Table 18, symbol H); format: in vivo, barnyard grass (Echinochloa crus-galli)
# Method in brief: as §2
# [12] = system: blackgrass; test: Test Example 5: herbicidal effect by foliage application, plastic box (Table 20, symbol J); format: in vivo, blackgrass (Alopecurus myosuroides); conditions: foliage application, evaluated three weeks after application
# Method in brief: as §1
# [13] = system: wild oat; test: Test Example 5: herbicidal effect by foliage application, plastic box (Table 20, symbol I); format: in vivo, wild oat (Avena fatua); conditions: foliage application, evaluated three weeks after application
# Method in brief: as §1
# [14] = system: late watergrass; test: Test Example 2: herbicidal activity, application during weed generation under submerged conditions (Table 17, symbol A); format: in vivo, late watergrass (Echinochloa oryzicola); conditions: AAH 320 g/ha; application during weed generation, submerged conditions
# Description: (§3) [Test Example 2] Herbicidal Activity Test by Application during Weed Generation under Submerged Conditions After alluvial soil was placed into 1/10000 are of Wagner pot, water was poured and mixed to form a submerged condition having a water depth of 4 cm. Seeds of late watergrass, Japanese bulrush, and oval-leafed pondweed were sowed in a mixed manner in the aforementioned pot, and the pot was placed in a greenhouse at 25° C. to 30° C. for growth of the plants. When late watergrass, Japanese bulrush, and oval-leafed pondweed were grown to one leaf stage to two leaf stage, the emulsion agent of the compound of the present invention prepared according to Formulation Example 2 was diluted with water so as to achieve a predetermined herbicide amount, and the diluted emulsion agent was applied to the surface of the water. Three weeks after the herbicide application, the effect of the herbicide on each plant was evaluated according to the criteria of Test Example 1.
# [15] = system: Chinese sprangletop; test: Test Example 3: herbicidal effect by foliage application, Wagner pot (Table 18, symbol D); format: in vivo, chinese sprangletop (Leptochloa chinensis)
# Method in brief: as §2
# [16] = system: oval-leafed pondweed; test: Test Example 2: herbicidal activity, application during weed generation under submerged conditions (Table 17, symbol C); format: in vivo, oval-leafed pondweed (Monochoria vaginalis); conditions: AAH 320 g/ha; application during weed generation, submerged conditions
# Method in brief: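 Herbicide emulsion, diluted with water to the chosen amount, is applied onto 4 cm floodwater over alluvial soil where the weeds were co-sown and raised at 25–30° C. Application timing: 1–2 leaves. Assessment: three weeks afterwards.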
# [17] = system: redroot pigweed; test: Test Example 5: herbicidal effect by foliage application, plastic box (Table 20, symbol N); format: in vivo, redroot pigweed (Amaranthus retroflexus); conditions: foliage application, evaluated three weeks after application
# Method in brief: as §1
# [18] = system: Japanese bulrush; test: Test Example 2: herbicidal activity, application during weed generation under submerged conditions (Table 17, symbol B); format: in vivo, Japanese bulrush (Schoenoplectus juncoides); conditions: AAH 320 g/ha; application during weed generation, submerged conditions
# Description: as §3
# [19] = amount of applied herbicide 320 g/ha
structure (smiles),measurement,setting,value
Cc1nn(C)c(=O)c(-c2c(-c3ccc(OCc4ccccc4)cc3)sc3ccc(F)cc23)c1OCc1ccccc1 [2-065],herbicidal effect on R: persian speedwell,[1],0 (Herbicidal rate of 5% or less (almost no effect))
same,herbicidal effect on P: chickweed,[2]; 320 g/ha,0 (Herbicidal rate of 5% or less (almost no effect))
same,herbicidal effect on H: barnyard grass,[3]; 320 g/ha,0 (Herbicidal rate of 5% or less (almost no effect))
same,herbicidal effect on O: lambsquarters,[4]; 320 g/ha,1 (Herbicidal rate of 5% or more and less than 20%)
same,"herbicidal effect on E (rice flat sedge), rating 0-5",[5]; 320 g/ha,3 (Herbicidal rate of 40% or more and less than 70%)
same,herbicidal effect on K: Italian ryegrass,[6]; 320 g/ha,0 (Herbicidal rate of 5% or less (almost no effect))
same,herbicidal effect on L: windgrass,[7]; 320 g/ha,0 (Herbicidal rate of 5% or less (almost no effect))
same,herbicidal effect on G: green foxtail,[8]; 320 g/ha,0 (Herbicidal rate of 5% or less (almost no effect))
same,herbicidal effect on F: southern crabgrass,[9]; 320 g/ha,0 (Herbicidal rate of 5% or less (almost no effect))
same,herbicidal effect on M: velvetleaf,[10]; 320 g/ha,0 (Herbicidal rate of 5% or less (almost no effect))
same,"herbicidal effect on H (barnyard grass), rating 0-5",[11]; 320 g/ha,3 (Herbicidal rate of 40% or more and less than 70%)
same,herbicidal effect on J: blackgrass,[12]; 320 g/ha,0 (Herbicidal rate of 5% or less (almost no effect))
same,herbicidal effect on I: wild oat,[13]; 320 g/ha,0 (Herbicidal rate of 5% or less (almost no effect))
same,"herbicidal effect rating, A: late watergrass",[14],3 (Herbicidal rate of 40% or more and less than 70%)
same,"herbicidal effect on D (Chinese sprangletop), rating 0-5",[15]; 320 g/ha,3 (Herbicidal rate of 40% or more and less than 70%)
same,"herbicidal effect rating, C: oval-leafed pondweed",[16],0 (Herbicidal rate of 5% or less (almost no effect))
same,herbicidal effect on N: redroot pigweed,[17]; 320 g/ha,3 (Herbicidal rate of 40% or more and less than 70%)
same,"herbicidal effect rating, B: Japanese bulrush",[18],0 (Herbicidal rate of 5% or less (almost no effect))
COCCOc1cccc(-c2sc3ccc(F)cc3c2-c2c(O)c(C)nn(C)c2=O)c1 [2-271],"P: chickweed, herbicidal effect (criteria 0-5)",[2]; AAH 320 g/ha,5 (Herbicidal rate of 90% or more (almost completely withered))
same,"H: barnyard grass, herbicidal effect (criteria 0-5)",[3]; AAH 320 g/ha,0 (Herbicidal rate of 5% or less (almost no effect))
same,"O: lambsquarters, herbicidal effect (criteria 0-5)",[4]; AAH 320 g/ha,0 (Herbicidal rate of 5% or less (almost no effect))
same,herbicidal effect on E: rice flat sedge,[5]; [19],3 (Herbicidal rate of 40% or more and less than 70%)
same,"K: Italian ryegrass, herbicidal effect (criteria 0-5)",[6]; AAH 320 g/ha,0 (Herbicidal rate of 5% or less (almost no effect))
same,"L: windgrass, herbicidal effect (criteria 0-5)",[7]; AAH 320 g/ha,0 (Herbicidal rate of 5% or less (almost no effect))
same,"G: green foxtail, herbicidal effect (criteria 0-5)",[8]; AAH 320 g/ha,0 (Herbicidal rate of 5% or less (almost no effect))
same,"F: southern crabgrass, herbicidal effect (criteria 0-5)",[9]; AAH 320 g/ha,0 (Herbicidal rate of 5% or less (almost no effect))
same,"M: velvetleaf, herbicidal effect (criteria 0-5)",[10]; AAH 320 g/ha,0 (Herbicidal rate of 5% or less (almost no effect))
same,herbicidal effect on H: barnyard grass,[11]; [19],3 (Herbicidal rate of 40% or more and less than 70%)
same,"J: blackgrass, herbicidal effect (criteria 0-5)",[12]; AAH 320 g/ha,0 (Herbicidal rate of 5% or less (almost no effect))
same,"I: wild oat, herbicidal effect (criteria 0-5)",[13]; AAH 320 g/ha,0 (Herbicidal rate of 5% or less (almost no effect))
same,"herbicidal effect rating, A: late watergrass",[14],3 (Herbicidal rate of 40% or more and less than 70%)
same,herbicidal effect on D: Chinese sprangletop,[15]; [19],0 (Herbicidal rate of 5% or less (almost no effect))
same,"herbicidal effect rating, C: oval-leafed pondweed",[16],0 (Herbicidal rate of 5% or less (almost no effect))
same,"N: redroot pigweed, herbicidal effect (criteria 0-5)",[17]; AAH 320 g/ha,3 (Herbicidal rate of 40% or more and less than 70%)
same,"herbicidal effect rating, B: Japanese bulrush",[18],0 (Herbicidal rate of 5% or less (almost no effect))

# Source: patent US20230085307A1, “PYRIDAZINONE COMPOUND AND HERBICIDE” (NISSAN CHEMICAL CORPORATION, priority 2019, published 2023)
